From US6838468B2, “4-(phenyl-piperdin-4-ylidene methyl)-benzamide derivatives and their use for the treatment of pain, anxiety or gastrointestinal disorders” (AstraZeneca AB, priority 2001, dated 2005)

Tests used:
cloned human δ receptor [1] = target: T1, cloned human δ receptor (Homo sapiens, UniProt P41143); experiment: GTP[γ]35S binding functional assay, HEK-293S membranes expressing cloned human δ receptor (HDELTA); assay type: biochemical
T1 construct: expressed in transfected cells; host or cells: human 293S (HEK-293S) cells, geneticin-selected
Description: (§1) • A. Human 293S cells expressing cloned human μ, δ, and κ receptors and neomycin resistance were grown in suspension at 37° C. and 5% CO2 in shaker flasks containing calcium-free DMEM10% FBS, 5% BCS, 0.1% Pluronic F-68, and 600 μg/ml geneticin. • B. Mouse and rat brains were weighed and rinsed in ice-cold PBS (containing 2.5 mM EDTA, pH 7.4). The brains were homogenized with a polytron for 15 sec (mouse) or 30 sec (rat) in ice-cold lysis buffer (50 mM Tris, pH 7.0, 2.5 mM EDTA, with phenylmethylsulfonyl fluoride added just prior use to […] from a 0.5M stock in DMSO:ethanol). Membrane Preparation
Cells were pelleted and resuspended in lysis buffer (50 mM Tris, pH 7.0, 2.5 mM EDTA, with PMSF added just prior to use to 0.1 mM from a 0.1 M stock in ethanol), incubated on ice for 15 min, then homogenized with a polytron for 30 sec. The suspension was spun at 1000 g (max) for 10 min at 4° C. The supernatant was saved on ice and the pellets resuspended and spun as before. The supernatants from both spins were combined and spun at 46,000 g(max) for 30 min. The pellets were resuspended in cold Tris buffer (50 mM Tris/Cl, pH 7.0) and spun again. The final pellets were resuspended in membrane buffer (50 mM Tris, 0.32 M sucrose, pH 7.0). Aliquots (1 ml) in polypropylene tubes were frozen in dry ice/ethanol and stored at −70° C. until use. The protein concentrations were determined by a modified Lowry assay with sodium dodecyl sulfate.
(§2) The agonist activity of the compounds is measured by determining the degree to which the compounds receptor complex activates the binding of GTP to G-proteins to which the receptors are coupled. In the GTP binding assay, GTP[γ]^35S is combined with test compounds and membranes from HEK-293S cells expressing the cloned human opioid receptors or from homogenised rat and mouse brain. Agonists stimulate GTP[γ]^35S binding in these membranes. The EC50 and Emax values of compounds are determined from dose-response curves. Right shifts of the dose response curve by the delta antagonist naltrindole are performed to verify that agonist activity is mediated through delta receptors.

[2] = target: T2, delta receptors, rat brain membranes (Rattus norvegicus, UniProt P33533); experiment: GTP[γ]35S binding functional assay, rat brain membranes; assay type: biochemical; details: GTPγ35S binding, maximal stimulated binding with 3 μM SNC-80
T2 construct: Rat brain membranes are thawed at 37° C; from tissue; host or cells: rat brain membranes
Description: as §1, §2
Rat brain membranes are thawed at 37° C., passed 3 times through a 25-gauge blunt-end needle and diluted in the GTPγS binding (50 mM Hepes, 20 mM NaOH, 100 mM NaCl, 1 mM EDTA, 5 mM MgCl2, pH 7.4, Add fresh: 1 mM DTT, 0.1% BSA). 120 μM GDP final is added membranes dilutions. […] The basal and maximal stimulated binding are determined in absence and presence of 3 μM SNC-80

cloned human δ receptor [3] = target: T1, cloned human δ receptor; experiment: Binding assay, membranes of human 293S cells expressing cloned human δ receptor (HDELTA); details: radioligand displacement
[4] = target: T3, delta receptors, mouse brain membranes (Mus musculus, UniProt P32300); experiment: GTP[γ]35S binding functional assay, mouse brain membranes; assay type: biochemical
T3 construct: from tissue; host or cells: mouse brain membranes
Description: as §1, §2

T3 sequence (P32300 whole entry): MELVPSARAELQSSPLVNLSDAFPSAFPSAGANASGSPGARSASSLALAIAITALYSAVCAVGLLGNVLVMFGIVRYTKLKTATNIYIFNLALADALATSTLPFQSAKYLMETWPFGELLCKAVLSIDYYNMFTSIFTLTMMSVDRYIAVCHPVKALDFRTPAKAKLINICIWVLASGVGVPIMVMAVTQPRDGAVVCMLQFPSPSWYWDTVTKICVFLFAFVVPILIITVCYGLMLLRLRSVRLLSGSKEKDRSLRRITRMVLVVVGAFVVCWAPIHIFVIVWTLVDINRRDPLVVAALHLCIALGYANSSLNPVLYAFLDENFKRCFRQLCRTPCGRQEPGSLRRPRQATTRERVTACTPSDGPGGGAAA
T2 sequence (P33533 whole entry): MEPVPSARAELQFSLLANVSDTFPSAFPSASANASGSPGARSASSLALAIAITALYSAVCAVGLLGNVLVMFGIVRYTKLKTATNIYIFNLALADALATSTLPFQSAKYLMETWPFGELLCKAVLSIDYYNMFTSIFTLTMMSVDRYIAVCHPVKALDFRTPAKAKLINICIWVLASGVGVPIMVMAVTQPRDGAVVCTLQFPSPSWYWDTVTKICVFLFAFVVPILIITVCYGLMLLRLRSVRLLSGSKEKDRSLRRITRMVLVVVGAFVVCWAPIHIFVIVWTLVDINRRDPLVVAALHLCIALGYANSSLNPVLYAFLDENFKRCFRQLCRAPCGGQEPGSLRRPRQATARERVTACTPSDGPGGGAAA
T1 sequence (P41143 whole entry): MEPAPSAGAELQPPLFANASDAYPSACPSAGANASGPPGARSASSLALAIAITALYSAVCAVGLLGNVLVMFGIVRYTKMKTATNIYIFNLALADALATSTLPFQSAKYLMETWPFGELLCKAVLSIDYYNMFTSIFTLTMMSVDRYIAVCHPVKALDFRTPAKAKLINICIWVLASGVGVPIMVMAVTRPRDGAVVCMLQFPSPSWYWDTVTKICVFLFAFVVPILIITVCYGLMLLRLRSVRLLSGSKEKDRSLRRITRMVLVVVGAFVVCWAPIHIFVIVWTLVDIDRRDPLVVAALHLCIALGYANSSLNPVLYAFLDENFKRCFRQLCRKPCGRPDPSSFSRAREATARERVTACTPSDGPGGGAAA

Row | Compound | Emax (cloned human δ receptor [1]) | Emax [2] | IC50 (cloned human δ receptor [3]) | Emax [4]
1 | CC(C)N(C(=O)c1ccc(C(=C2CCN(Cc3cccs3)CC2)c2cccc3cccnc23)cc1)C(C)C [Example 4, N,N-Diisopropyl-4-[1-quinolin-8-yl-1-(1-thiophen-2-ylmethyl-piperidin-4-ylidene)-methyl]-benzamide] | 96 to 102% | 97 to 144% | 0.78 to 5 nM | 100 to 151%
2 | CC(C)N(C(=O)c1ccc(C(=C2CCN(Cc3ccncc3)CC2)c2cccc3cccnc23)cc1)C(C)C [Example 3, N,N-Diisopropyl-4-[1-(1-pyridin-4-ylmethyl-piperidin-4-ylidene)-1-quinolin-8-yl-methyl]-benzamide] | 96 to 102% | 97 to 144% | 0.78 to 5 nM | 100 to 151%
3 | CC(C)N(C(=O)c1ccc(C(=C2CCN(Cc3nccs3)CC2)c2cccc3cccnc23)cc1)C(C)C [Example 9, N,N-Diisopropyl-4-[1-quinolin-8-yl-1-(1-thiazol-2-ylmethyl-piperidin-4-ylidene)-methyl]-benzamide] | 96 to 102% | 97 to 144% | 0.78 to 5 nM | 100 to 151%
4 | CC(C)N(C(=O)c1ccc(C(=C2CCN(Cc3ncc[nH]3)CC2)c2cccc3cccnc23)cc1)C(C)C [Example 10, 4-{1-[1-(1H-Imidazol-2-ylmethyl)-piperidin-4-ylidene]-1-quinolin-8-yl-methyl]-N,N-diisopropylbenzamide] | 96 to 102% | 97 to 144% | 0.78 to 5 nM | 100 to 151%
5 | CC(C)N(C(=O)c1ccc(C(=C2CCN(Cc3ccccc3)CC2)c2cccc3cccnc23)cc1)C(C)C [Example 1, 4-[1-(1-Benzyl-piperidin-4-ylidene)-1-quinolin-8-yl-methyl]-N,N-diisopropyl-benzamide] | 96 to 102% | 97 to 144% | 0.78 to 5 nM | 100 to 151%
6 | CC(C)N(C(=O)c1ccc(C(=C2CCN(Cc3ccoc3)CC2)c2cccc3cccnc23)cc1)C(C)C [Example 6, N,N-Diisopropyl-4-[1-quinolin-8-yl-1-(1-furan-3-ylmethyl-piperidin-4-ylidene)-methyl]-benzamide] | 96 to 102% | 97 to 144% | 0.78 to 5 nM | 100 to 151%
7 | COc1ccc(CN2CCC(=C(c3ccc(C(=O)N(C(C)C)C(C)C)cc3)c3cccc4cccnc34)CC2)cc1 [Example 8, N,N-Diisopropyl-4-{1-[1-(4-methoxy-benzyl)-piperidin-4-ylidene]-1-quinolin-8-yl-methyl}-benzamide] | 96 to 102% | 97 to 144% | 0.78 to 5 nM | 100 to 151%
8 | CC(C)N(C(=O)c1ccc(C(=C2CCN(Cc3ccco3)CC2)c2cccc3cccnc23)cc1)C(C)C [Example 7, N,N-Diisopropyl-4-[1-quinolin-8-yl-1-(1-furan-2-ylmethyl-piperidin-4-ylidene)-methyl]-benzamide] | 96 to 102% | 97 to 144% | 0.78 to 5 nM | 100 to 151%
9 | CC(C)N(C(=O)c1ccc(C(=C2CCN(Cc3ccc(Br)cc3)CC2)c2cccc3cccnc23)cc1)C(C)C [Example 11] | 96 to 102% | 97 to 144% | 0.78 to 5 nM | 100 to 151%
10 | CC(C)N(C(=O)c1ccc(C(=C2CCN(Cc3ccccn3)CC2)c2cccc3cccnc23)cc1)C(C)C [Example 2, N,N-Diisopropyl-4-[1-(1-pyridin-2-ylmethyl-piperidin-4-ylidene)-1-quinolin-8-yl-methyl]-benzamide] | 96 to 102% | 97 to 144% | 0.78 to 5 nM | 100 to 151%
